The text below walks through data of patent publication US5597832A (Abbott Laboratories, priority 1994, dated 1997).

Assay [1] relates to dopamine receptors. As to conditions: literature; cited from earlier work.
The subject of assay [2] is D-1 receptor. Kind of assay: Adenylate cyclase assay (agonist activity, cAMP). The assay is classed as biochemical, goldfish retina or rat striatum.
The target of assay [3] is T1, dopamine D-1 receptor (Rattus norvegicus, UniProt P18901). To be noted: read-out: D-1 Ki.
In assay [4] the target is T2, dopamine D-2 receptor (Rattus norvegicus, UniProt P61169).
T2 construct: Homogenized rat caudate was the source of the D-2 receptors; from tissue; host or cells: rat caudate homogenate
Put plainly: D-2 receptor competitive binding, [3H]-spiroperidol, homogenized rat caudate. As to conditions: read-out: D-2 Ki.

In assay [5] the test system is striatal dopamine receptors. Kind of assay: animal or person. The assay is classed as in vivo. To be noted: Rattus norvegicus, sc, read-out: EC50, rotation behavior.
Assay [6] concerns the target T1, dopamine D-1 receptor. Kind of assay: biochemical.
The test system of assay [7] is schizophrenia. To be noted: literature, cited from earlier work; for antipsychotic effects: low doses.
Assay [8] relates to rats. As to conditions: literature; cited from earlier work.
In assay [9] the test system is Parkinson's disease. As to conditions: alone, some patients; cited from earlier work.
The mark [10] stands for this setting: goldfish retina or rat striatum homogenate.

Counter-ions that a name gives are not always drawn. Like-named read-outs stand apart in the source and are kept apart here. Some results are limits rather than exact numbers.

What is called EC50 is the concentration needed to bring the measured effect to its halfway point. High values mean lower potency in that assay, low ones higher potency in that assay. Broadly, the Ki is a measure of affinity in units of concentration, obtained from inhibition or displacement.

T1 sequence (P18901 whole entry): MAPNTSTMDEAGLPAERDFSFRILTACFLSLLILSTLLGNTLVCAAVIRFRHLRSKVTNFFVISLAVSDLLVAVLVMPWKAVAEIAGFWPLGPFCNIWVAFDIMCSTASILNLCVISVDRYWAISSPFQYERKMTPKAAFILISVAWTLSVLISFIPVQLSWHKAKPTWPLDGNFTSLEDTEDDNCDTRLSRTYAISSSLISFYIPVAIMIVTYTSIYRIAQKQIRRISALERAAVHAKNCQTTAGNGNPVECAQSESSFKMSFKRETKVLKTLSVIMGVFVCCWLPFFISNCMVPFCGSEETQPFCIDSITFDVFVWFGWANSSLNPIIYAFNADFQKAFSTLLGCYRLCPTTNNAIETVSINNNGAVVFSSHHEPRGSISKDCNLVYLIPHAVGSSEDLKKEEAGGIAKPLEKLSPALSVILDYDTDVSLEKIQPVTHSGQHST
T2 sequence (P61169 whole entry): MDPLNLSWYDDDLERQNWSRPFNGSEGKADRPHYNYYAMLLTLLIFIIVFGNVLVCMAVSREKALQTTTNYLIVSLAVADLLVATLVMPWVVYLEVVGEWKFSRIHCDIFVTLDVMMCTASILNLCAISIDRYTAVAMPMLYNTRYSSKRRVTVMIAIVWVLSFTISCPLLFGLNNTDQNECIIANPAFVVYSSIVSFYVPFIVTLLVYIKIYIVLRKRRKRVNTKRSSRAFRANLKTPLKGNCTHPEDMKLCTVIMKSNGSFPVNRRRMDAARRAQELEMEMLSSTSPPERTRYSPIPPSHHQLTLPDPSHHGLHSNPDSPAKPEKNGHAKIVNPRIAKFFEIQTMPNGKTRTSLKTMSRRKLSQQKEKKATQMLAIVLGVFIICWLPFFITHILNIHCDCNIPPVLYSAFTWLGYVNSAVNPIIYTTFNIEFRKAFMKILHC

Turning to `Oc1ccc2c(c1O)CCC1NCc3ccccc3C21` (centres unmarked), the “dopamine agonist activity” value in assay [1] was “inactive at dopamine receptors”.

For the compound `Cc1sc2c(c1C)CN[C@H]1CCc3cc(O)c(O)cc3[C@H]21` (relative stereo) [Example 21, trans-2,3-dimethyl-4,5,5a,6,7,11b-hexahydro-1-thia-5-aza-cyclopent-2-ena[c]phenanthrene-9,10-diol hydrobromide], in assay [2], the “Intrinsic Activity (%)” value came to 95%. The same compound showed an EC50 in assay [2] (setting [10]) of 182 nM. The Ki is 15 nM in [3] and 66 nM in assay [4].

For `CCc1cc2c(o1)CN[C@@H]1CCc3cc(O)c(O)cc3[C@@H]21` (relative stereo) [Example 40, trans-2-Ethyl-4,5,5a,6,7,11b-hexahydro-3-oxa-5-aza-cyclopent-1-ena[c]phenanthrene-9,10-diol hydrochloride], in assay [2], the EC50 stood at 37 nM and the “Intrinsic Activity (%)” value came out at 70%. Besides, in [3], the Ki was determined as 15 nM. In addition, the ED50 in assay [5] worked out at 0.12 µmol/kg. Also, the Ki in assay [4] (rat caudate, [3H]-spiroperidol) is 480 nM.

With `CC(C)c1nc2c(o1)[C@@H]1c3cc(O)c(O)cc3CC[C@H]1NC2` (relative stereo) [Example 50, trans-2-isopropyl-4,5,5a,6,7,11b-hexahydro-1-oxa-3,5-diaza-cyclopent-2-ena[c]phenanthrene-9,10-diol dihydrobromide], in assay [2], the response was half-maximal at 81 nM (EC50) and the “Intrinsic Activity (%)” value is 108%. Also, the Ki in assay [3] came to 12 nM. Further, the ED50 in [5] was over 1 µmol/kg. Also, the Ki in assay [4] (rat caudate, [3H]-spiroperidol) turned out to be 365 nM.

Take `Cc1nc2c(o1)[C@@H]1c3cc(O)c(O)cc3CC[C@H]1NC2` (relative stereo) [Example 51, trans-2-Methyl-4,5,5a,6,7,11b-hexahydro-1-oxa-3,5-diaza-cyclopent-2-ena[c]phenanthrene-9,10-diol]: the EC50 in assay [2] is 65 nM. In addition, the “Intrinsic Activity (%)” value in assay [2] is recorded as 100%. Also, the Ki worked out at 11 nM in assay [3] and 382 nM in assay [4] (rat caudate, [3H]-spiroperidol). Besides, in [5], the ED50 was determined as 0.33 µmol/kg.

On to `CCCc1nc2c(s1)CN[C@@H]1CCc3cc(O)c(O)cc3[C@@H]21` (relative stereo) [Example 54, trans-2-propyl-4,5,5a,6,7,11b-hexahydro-1,5-diaza-3-thia-cyclopent-1-ena[c]phenanthrene-9,10-diol dihydrobromide], for which the “Intrinsic Activity (%)” value in assay [2] came out at 67%. Besides, the EC50 in [2] (setting [10]) was 580 nM. For the same compound, the Ki in assay [6] is 220 nM; in assay [4] (rat caudate, [3H]-spiroperidol), over 5000 nM. The ED50 in [5] stood at 0.21 µmol/kg.

Consider `CCc1cc2c(o1)[C@@H]1c3cc(O)c(O)cc3CC[C@H]1NC2` (relative stereo) [Example 55, trans-2-ethyl-4,5,5a,6,7,11b-hexahydro-1-oxa-5-aza-cyclopent-2-ena[c]phenanthrene-9,10-diol hydrochloride], for which, in [2], the EC50 was determined as 64 nM. Further, in assay [2], the “Intrinsic Activity (%)” value stood at 92%. The Ki is 10 nM in assay [6] and 368 nM in assay [4] (rat caudate, [3H]-spiroperidol). Further, the ED50 in assay [5] was 0.17 µmol/kg.

As to `Oc1cc2c(cc1O)C1c3cc(C45CC6CC(CC(C6)C4)C5)sc3CNC1CC2` (centres unmarked) [Example 47, 2-(Adamantyl)-4,5,5a,6,7,11b-hexahydro-3-thia-5-aza-cyclopent-1-ena[c]phenanthrene-9,10-diol hydrobromide], the Ki in assay [3] (rat caudate, [125I]SCH-23982) is over 10000 nM; in assay [4] (rat caudate, [3H]-spiroperidol), over 5000 nM.

Regarding `Oc1cc2c(cc1O)C(c1ccccc1)CNCC2` (centres unmarked) [SKF 38393], the “effect on side-effects of haloperidol” value in assay [7] (used in conjunction with haloperidol) is “ameliorate the undesired side-effects of the haloperidol”. Further, in assay [8], the “food intake” value is “decrease food intake by rats”.

As for `CN1CCc2cccc3c2[C@H]1Cc1ccc(O)c(O)c1-3` [apomorphine], the “antipsychotic effects” value in assay [7] is reported as “produce antipsychotic effects”.

As for `CC(C)C[C@H]1C(=O)N2CCC[C@H]2[C@]2(O)O[C@](NC(=O)[C@@H]3C=C4c5cccc6[nH]c(Br)c(c56)C[C@H]4N(C)C3)(C(C)C)C(=O)N12` [bromocriptine], the “relief of Parkinson's disease symptoms” value in [9] is “relieve Parkinson's disease symptoms in some patients”. For the same compound, the “antipsychotic effects” value in assay [7] is reported as “produce antipsychotic effects”.

As for `Oc1cc2c(cc1O)C1c3ccccc3CNC1CC2` (centres unmarked) [dihydrexidine], the “dopamine agonist activity” value in assay [1] was “active as a dopamine agonist”.
